Entries after “also recorded” stand apart in the source; their conditions may differ.
Assays:
[1] = tested on: embryo and yolk sac blood vessels; assay: Whole mount anti-CD31/PECAM staining of embryo and yolk sac on E9; type: in vivo, mouse; conditions: 30 mg/kg on E7, studied E9
Method: Mice were treated with 30 mg/kg AGM-1470 following the same protocol in Example 2. The control and AGM-1470 treated embryos were studied on E9 by whole mount immunohistochemistry for CD-31/PECAM to stain blood vessels. The fetus and the yolk sack in the mice given AGM-1470 on E1 were excluded due to necrosis by E9. […] Loss of vascular development in the embryo could be due to either a direct effect of AGM-1470 on the embryonic vasculature or to a secondary effect caused by failure of normal placental and yolk sac development.
The whole-mount immunohistochemistry with monoclonal antibody to mouse PECAM (CD31) was performed essentially as described by Schlaeger^29 Embryos were dissected from the uterus and fixed in 4% paraformaldehyde, PBS at 4° Celsius overnight. The fixed embryos were subsequently rinsed in PBS at room temperature and dehydrated in a methanol series. The dehydrated embryos were bleached in 5% hydrogen peroxide in methanol for 4 to 5 hours at room temperature and then rinsed twice in methanol. Embryos were stored at −20° Celsius until used. The bleached embryos were rehydrated and blocked with PBSMT (3% instant skim milk, 0.1% Triton X-100, PBS) for one hour twice at room temperature. The embryos were then incubated with a 1:10 diluted hybridoma supernatant in PBSMT at 4° Celsius overnight. On the next day, the embryos were washed with PBSMT at 4° Celsius five times (1 hour each) and then incubated with a biotinylated secondary anti-rat IgG, mouse adsorbed (Vector Laboratories, Burlingame, Calif.) in PBSMT at 4° Celsius overnight. On the third day, the embryos were rinsed in PBSMT at 4° Celsius five times (1 hour each) and then incubated in avidin and horse radish conjugated biotin in PBSMT (1:100 dilution) (Vectastatin Elite Standard ABC Kit, Vector Laboratories) overnight at 4° Celsius. On the fourth day embryos were rinsed in PBSMT at 4° Celsius five time (1 hour each) and finally in PBT (0.2% BSA, 0.1% Triton-X100, PBS) for 20 minutes at room temperature. […]

plugged mice = assay: Reversibility: remating after fetal resorption; type: in vivo, mouse; conditions: 30 mg/kg on E1 (n=3) or E7 (n=3), remated six weeks after E18 laparotomy
Method: To establish long-term safety, the course of recovery of the reproductive system after fetal resorption was studied. Six plugged mice were injected with 30 mg/kg AGM-1470 on E1 (n=3) or E7 (n=3) and then anesthetized on E18 in a methoxyflurane (Pittman-Moore, Mandelein, Ill.) chamber so that a laparotomy could be performed. The uteri were inspected to confirm the presence of resorption cites. The incisions were closed with a running 3-0 ethelon™ black monofilament nylon suture (Ethicon, Somerville; N.J.). Animals were observed until fully recovered. After an additional six weeks the mice were remated to determine their ability to become inseminated and deliver a normal litter. […] Therefore, there is a functional recovery of the uterus after AGM-1470 treatment on E1 or E7.

corpora lutea = assay: Cycling mice, chronic treatment: examination of the ovaries; type: in vivo, mouse; conditions: 30 mg/kg every other day for 16 days
Method: Mice were randomized and received either AGM-1470 30 mg/kg s.c. or saline 0.1 ml s.c. every other day for 16 days (approximately four estrous cycles). On the last of four days of treatment mice were housed with male mice to see if successful mating and conception would occur. On day 16 mice were weighed and sacrificed by cervical dislocation. The ovaries were resected enbloc, fixed in Carnoy's fixative, and embedded in paraffin according to standard histologic techniques. Sections were cut at 6 microns and stained with hematoxylin and eosin.

female C57BL/6 mice = assay: Single dose on E(-1): implantation sites 6 days after mating; type: in vivo, mouse; conditions: single dose 30 mg/kg s.c. on E(-1), sacrificed 6 days after mating
Method: (§1) FIGS. 7A and 7B show the ovaries and uteri from a control mouse or an AGM-treated mouse given a single dose of AGM-1470 on E(−1). Group housed female C57BL/6 mice were treated with a single injection of AGM-1470 (30 mg/kg, s.c.) and paired with male breeders. Mice who mated on the day after treatment were sacrificed 6 days after mating. Ovaries and uteri were removed en bloc, fixed and stained with hemotoxylin and eosin. […] Thin arrows indicate the corpora lutea.
as §1, with “In addition,” for “FIGS. 7A and 7B show”, “from” for “from a”, “and” for “mouse or an AGM-treated mouse given a”, “treatment mice were examined.” for “dose of AGM-1470 on E(−1).”, “lutea.^1 The fat arrows indicate implantation sites in control not seen in treated animal.” for “lutea.”

angiogenesis = conditions: cited from earlier work

In the case of `CO[C@@H]1[C@H](OC(=O)NC(=O)CCl)CC[C@]2(CO2)[C@H]1[C@@]1(C)O[C@@H]1CC=C(C)C` [AGM-1470, O-chloroacetylcarbamoyl fumagillol], the “CD31 labeled vessels in heart and liver bud” value [1] is reported as “almost a complete loss of CD31 labeled vessels”, the “capillary density of embryo (CD31)” value [1] is reported as “loss of capillary density; also recorded: diffuse decrease in capillary density” and the “capillary density of yolk sac (CD31)” value [1] is reported as “decrease in density and intercapillary distance of capillaries; also recorded: decreased capillary density”. The litters after remating (plugged mice) was “normal litters in all mice”, the “corpora lutea smaller than control” value (corpora lutea) was 61% and the “number of corpora lutea” value (corpora lutea; vs control) was “fewer; also recorded: decreased size and number of corpora lutea”. The implantation sites (female C57BL/6 mice) was “prevented implantation; also recorded: not seen in AGM-1470 treated animal” and the “activity relative to parent compound fumagillin” value (angiogenesis) was 50 times.

— patent publication US6441027B1, “Method of regulating the female reproductive system through angiogenesis inhibitors” (Children's Medical Center Corporation, priority 1996, dated 2002)
